In series [1] the target is T1, hα7-wt nAChR-expressing cells (Homo sapiens, UniProt P36544).
T1 construct: expressed in transfected cells; host or cells: hα7-wt nAChR-expressing cells
The experiment in a line: Ca2+ flux imaging (FDSS) (Protocol B), PAM activity with choline 100 μM. The note with it: according to Ex. D.1b; read-out: % Efficacy. It counts as cell-based. Here is the method:
Ca^2+ Flux Imaging (FDSS) (Protocol B)
• a) Assay buffer • Hanks buffered saline solution (HBSS, Invitrogen, Belgium), supplemented with 10 mM HEPES (Invitrogen, Belgium), CaCl2 to a final concentration of 5 mM, 0.1% Bovine serum albumin (Sigma-Aldrich NV, Belgium). • b) Calcium-sensitive dye—Fluo-4AM • Fluo-4AM (Molecular Probes, USA) was dissolved in DMSO containing 10% Pluronic acid (Molecular Probes, USA) to give a stock solution which was diluted in assay buffer supplemented with 5 mM probenicid (Sigma, Al-drich NV, Belgium) to give a final concentration of 2 μM. • c) 384-well plates • Black 384 well plate black/clear plates, PDL pre-coated (Corning, Incorporated, USA) • d) Calcium flux measurement • A Functional drug screening system (FDSS, Hamamatsu) was used to measure intracellular free-calcium flux signals. Method
Monolayers of hα7-wt nAChR-expressing cells were grown in multi-well plates, in particular black-sided, transparent bottomed 384 well plates coated with poly-D-lysine for 24 hours prior to loading with a fluorescent calcium indicator, in a particular embodiment loading with fluo-4AM for up to 120 minutes.
PAM activity was detected in real time by applying the compounds to be tested to the loaded cells along with a α7 nicotinic receptor agonist during constant monitoring of cellular fluorescence in a FDSS. Compounds giving peak fluorescent responses greater than the response due to agonist alone, were considered to be α7 nAChR PAM's. In a particular embodiment, the α7 nicotinic receptor agonist was choline, a more particular embodiment choline applied at a sub-maximal concentration of 100 μM. In a further setting of the present invention the compounds to be tested were applied prior to the α7 nicotinic receptor agonist, in a particular embodiment up to 10 minutes prior to the agonist.
A control response to choline was calculated on each plate from the difference in peak in fluorescence in wells receiving either choline or assay buffer alone. Compounds of the present invention were tested at a concentration range from 0.01 μM to 30 μM. Compounds were considered to have an interesting activity when they potentiated the choline signal at least with 500% when tested at a concentration of 30 μM (the efficacy of 100 μM choline was defined as 100% in the absence of a PAM). The compounds also have a potentiating effect on the response to choline when measured by whole-cell patch clamp electrophysiology in GH4Cl cells stably over-expressing the human wild-type α7 receptor.

For series [2], the target named is T2, hα7-wt nAChR-expressing GH4Cl cells (Homo sapiens, UniProt P36544).
T2 construct: expressed in transfected cells
T2 sequence (P36544 23-502): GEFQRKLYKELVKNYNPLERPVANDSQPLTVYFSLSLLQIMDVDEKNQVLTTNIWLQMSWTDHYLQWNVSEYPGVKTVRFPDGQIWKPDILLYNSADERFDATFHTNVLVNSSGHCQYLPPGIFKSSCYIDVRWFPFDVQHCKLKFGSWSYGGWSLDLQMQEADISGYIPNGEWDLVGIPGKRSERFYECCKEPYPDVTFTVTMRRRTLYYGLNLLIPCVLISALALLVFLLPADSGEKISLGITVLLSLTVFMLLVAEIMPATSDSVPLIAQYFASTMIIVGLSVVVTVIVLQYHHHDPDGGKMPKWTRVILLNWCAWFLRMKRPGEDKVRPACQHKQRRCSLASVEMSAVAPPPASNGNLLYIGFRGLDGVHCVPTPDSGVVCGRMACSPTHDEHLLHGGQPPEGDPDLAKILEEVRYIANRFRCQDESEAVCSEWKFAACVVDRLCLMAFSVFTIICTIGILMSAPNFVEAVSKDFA
The series is described as follows: Patch-clamp current recording (whole-cell), potentiation of choline 1 mM response, PAM type. The note with it: for EC50: according to Ex. D.2, "<5" = no top plateau reached at maximal concentration, read-out: Potency (pEC50) (converted); for Pam type: patch-clamp current recording, 1 mM choline. Also on record: key to Pam type: Type 0 compounds minimally enhance the effect size of the current elicited by 1 mM choline.; Type 1 compounds enhance the effect size of the current elicited by 1 mM choline but minimally alter the kinetics of the receptor.; Type 2 compounds enhance the effect size of the current elicited by 1 mM choline while reducing the rate and/or the extent of desensitization.; Type 3 compounds enhance the effect size of the current elicited by 1 mM choline. When tested at higher concentrations up to 10 μM they completely inhibit desensitization, in particular a 1 mM choline application of 250 milliseconds.; Type 4 compounds allow for an initial desensitization of the receptor followed by a re-opening of the receptor during agonist application. In kind it is cell-based. The procedure, abridged:
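PAM type assigned qualitatively from current size and desensitization rate/extent when compound is applied simultaneously with 1 mM choline. Recordings: hα7-wt nAChR GH4Cl cells, whole-cell patch clamp, holding −70 mV, series resistance <15 MΩ with ≥60% compensation, pH 7.3 HEPES solutions, solution switching <100 ms.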

As usually defined, the melting point is the temperature of the solid-liquid transition.

T1 sequence (P36544 23-502): as above

For the compound `Cc1cc(-n2nc(Nc3cccc(Cl)c3F)nc2CC(=O)NCC2CC2)c(C)cn1` [E158], the Emax in series [1] amounted to 328%. In addition, in series [2], the EC50 was 1380 nM and the Pam type was found to be 1.
Taken in the same sequence, the figures for `Cc1cc(-n2nc(Nc3cccc(Cl)c3F)nc2CC(=O)NC2CCC2)c(C)cn1` [E159] were 592%, 1740 nM and 1.
For `CCNC(=O)Cc1nc(Nc2cc(F)cc(Cl)c2)nn1-c1cc(C)nc(C)c1` [E246], the melting point was 290.2 °C. The Emax in series [1] is 494%. In series [2], the EC50 was 275 nM.
In turn, `CNC(=O)Cc1nc(Nc2ccc(OC)c(C(F)(F)F)c2)nn1-c1cc(C)nc(C)c1` [E227] showed a melting point of 263 °C. The Emax in series [1] stood at 654%. In series [2], the EC50 was 457 nM and the Pam type worked out at 4.
With `Cc1cc(-n2nc(Nc3cc(F)cc(C(F)(F)F)c3)nc2CC(=O)NC2CC2)cc(C)n1` [E253], the melting point was found to be 286.3 °C. In addition, the Emax in series [1] was found to be 950%. For the same compound, the EC50 in series [2] was 91.2 nM.
For `CNC(=O)Cc1nc(Nc2cc(F)cc(C(F)(F)F)c2)nn1-c1cc(C)nc(C)c1` [E251], the melting point was 286.2 °C. In series [1], the Emax amounted to 658%. Further, in series [2], the EC50 was 263 nM.
With `COc1cc(Cl)cc(Nc2nc(CC(=O)NC3CC3)n(-c3cc(C)nc(C)c3)n2)c1` [E221], the melting point was determined as 264.4 °C. Also, in series [1], the Emax was found to be 620%. Besides, in series [2], the EC50 was 209 nM and the Pam type worked out at 4.
For `Cc1nccc(-n2nc(Nc3cccc(Cl)c3F)nc2CC(=O)NC2CCC2)c1C` [E192] the same measures were 187.9 °C, 397%, 1580 nM and 1.
The compound `Cc1cc(-n2nc(Nc3ccc(F)c(F)c3F)nc2CC(=O)NC(C)C)cc(C)n1` [E213] returned a melting point of 252.1 °C. Moreover, in series [1], the Emax worked out at 909%. Besides, in series [2], the EC50 is 468 nM and the Pam type came out at 2.
Taken in the same sequence, the figures for `Cc1cc(-n2nc(Nc3ccc(F)c(F)c3)nc2CC(=O)NC2CCC2)c(C)cn1` [E162] were 244.1 °C, 623%, 2880 nM and 1.
With `CNC(=O)CCc1nc(Nc2ccc(F)c(F)c2)nn1-c1ccccc1Cl` [E38], the Emax in series [1] worked out at 253%. In addition, the EC50 in series [2] was 3090 nM.
For `CNC(=O)Cc1nc(Nc2cc(OC)cc(C(F)(F)F)c2)nn1-c1cc(C)nc(C)c1` [E243], the melting point is 284.6 °C. For the same compound, the Emax in series [1] was determined as 802%. Also, in series [2], the EC50 is 204 nM.
For `Cc1cc(-n2nc(Nc3ccc(F)c(Cl)c3)nc2CC(=O)NC2CCC2)cc(C)n1` [E231] the same measures were 273.9 °C, 606% and 57.5 nM.
For `Cc1cc(-n2nc(Nc3cc(F)c(F)c(F)c3)nc2CC(=O)NC2CCC2)cc(C)n1` [E242], the melting point was 291.9 °C. The Emax in series [1] was 676%. Besides, in series [2], the EC50 was 95.5 nM.
As for `COc1ccc(Nc2nc(CC(=O)NC3CCC3)n(-c3cc(C)nc(C)c3)n2)cc1C(F)(F)F` [E236], the melting point is 268.7 °C. Moreover, the Emax in series [1] was determined as 391%. The EC50 in series [2] is 120 nM.
Taken in the same sequence, the figures for `Cc1cc(-n2nc(Nc3cc(F)cc(Cl)c3)nc2CC(=O)NC2CCC2)cc(C)n1` [E248] were 287 °C, 421% and 107 nM.
The compound `CNC(=O)Cc1nc(Nc2cc(F)cc(F)c2)nn1-c1cc(C)nc(C)c1` [E232] came in with a melting point of 282.1 °C. Moreover, in series [1], the Emax came out at 289%. Also, the EC50 in series [2] was 871 nM.
Taken in the same sequence, the figures for `C[C@H](O)Cc1nc(Nc2ccc(F)c(F)c2)nn1-c1ccc(F)cc1` [E19] were 178 °C, 445% and 3020 nM.
In turn, `Cc1cc(-n2nc(Nc3ccc(F)c(F)c3F)nc2CC(=O)NCC2CC2)cc(C)n1` [E214] gave a melting point of 213.7 °C. The Emax in series [1] is 730%. In addition, in series [2], the EC50 is 132 nM and the Pam type is 2.
Consider `CC[C@@H](O)Cc1nc(Nc2cc(OC)cc(C(F)(F)F)c2)nn1-c1cc(C)nc(C)c1` [E128], for which the melting point came to 138.8 °C. Also, the Emax in series [1] is 994%. For the same compound, in series [2], the EC50 was 126 nM and the Pam type is 4.
With `Cc1cc(-n2nc(Nc3cccc(Cl)c3F)nc2CC(=O)NC2CC2)c(C)cn1` [E157], the melting point is 192.6 °C. In addition, the Emax in series [1] turned out to be 492%. For the same compound, in series [2], the EC50 was 3800 nM and the Pam type stood at 2.
As to `CNC(=O)CCc1nc(Nc2ccc(F)c(F)c2)nn1-c1ccc(OC(F)(F)F)cc1` [E47], the Emax in series [1] is 698%. Moreover, in series [2], the EC50 is 1510 nM.
Regarding `Cc1cc(-n2nc(Nc3cc(F)c(F)c(F)c3)nc2CC(=O)NC2CC2)cc(C)n1` [E241], the melting point worked out at 295.7 °C. In addition, the Emax in series [1] was 653%. The EC50 in series [2] is 138 nM.
Regarding `CCNC(=O)Cc1nc(Nc2ccc(F)c(C(F)(F)F)c2)nn1-c1cc(C)nc(C)c1` [E224], the melting point is 256.2 °C. Also, the Emax in series [1] amounted to 600%. Besides, in series [2], the EC50 is 204 nM and the Pam type is listed as 1.
Taken in the same sequence, the figures for `CCNC(=O)Cc1nc(Nc2cc(F)c(F)c(F)c2)nn1-c1cc(C)nc(C)c1` [E215] were 296.1 °C, 658%, 214 nM and 2.
For `CNC(=O)Cc1nc(Nc2cc(Cl)cc(OC)c2)nn1-c1cc(C)nc(C)c1` [E216] the same measures were 246.2 °C, 576%, 603 nM and 4.
`COc1cc(Cl)cc(Nc2nc(CC(=O)NC3CCC3)n(-c3cc(C)nc(C)c3)n2)c1` [E222] registered a melting point of 257.8 °C. Also, the Emax in series [1] came to 440%. In series [2], the EC50 was 83.2 nM and the Pam type was 1.
`Cc1cc(-n2nc(Nc3cccc(Cl)c3F)nc2CCC(=O)N(C)C)cc(C)n1` [E265]: the Emax in series [1] came to 616%. The EC50 in series [2] is 37.2 nM.
Turning to `Cc1cc(-n2nc(Nc3ccc(F)c(C(F)(F)F)c3)nc2CC(=O)NC2CC2)cc(C)n1` [E226], in series [1], the Emax worked out at 711%. Moreover, in series [2], the EC50 was 120 nM and the Pam type was found to be 1.
Consider `Cc1nccc(-n2nc(Nc3cccc(Cl)c3F)nc2CC(=O)NCC2CC2)c1C` [E193], for which, in series [1], the Emax amounted to 327%. Also, the EC50 in series [2] is around 3020 nM.
For the compound `CNC(=O)CCc1nc(Nc2ccc(F)c(F)c2)nn1-c1cccc(Cl)c1` [E39], in series [1], the Emax worked out at 674%. The EC50 in series [2] was 2570 nM.
On to `CC[C@H](O)Cc1nc(Nc2cc(OC)cc(C(F)(F)F)c2)nn1-c1ccnc(C)c1C` [E220], for which, in series [1], the Emax was found to be 646%. The EC50 in series [2] is 2040 nM.
On to `COc1ccc(-n2nc(Nc3cccc(OC(F)(F)F)c3)nc2CCC(=O)N(C)C)cc1` [E183], for which the Emax in series [1] is 718%. For the same compound, in series [2], the EC50 was 26.9 nM and the Pam type stood at 1.
